# Assay results taken from patent US8518869B2, “Pharmaceutical combined preparation containing a therapeutic protein” (Austria Wirtschaftsservice Gesellschaft m.b.H., priority 2004, dated 2013).
# Legend:
# [1] = Description: It is understood that often arrangements must be made also for the storage of the preparation according to the invention so that said preparation will remain stable over an extended period of time. […] Hereby, it is possible to store the low-molecular thiol compound and the nitrosated protein of the preparation according to the invention both in combined and in separate form.
# [2] = system: collagen-induced platelet aggregation; assay: collagen-induced platelet aggregation in human plasma rich in thrombocytes (aggregometer, method by Born); format: cell-based; conditions: 300 μmol/L, ~1 μg collagen/mL TRP
# Description: The platelet aggregation was performed with human plasma rich in thrombocytes (TRP) in a Dual Kanal Chronolog Aggregometer basically according to the method by Born (1969). At the onset of each experiment, the exact dose of collagen was determined for the aggregation induced by collagen (˜1 μg collagen/mL TRP) (95-100% inhibition of the collagen-induced aggregation by 300 μmol/L of acetylsalicylic acid). […] After another minute, aggregation was induced with collagen. Control experiments with collagen alone were carried out after every second to third measurement. […] In experiments with different thiol- and non-thiol-containing substances (N-acetyl-L-cysteine, ascorbic acid, DL-homocysteine, taurine, L-cysteine), pre-incubation was effected primarily with those substances, in analogy to the trials using reduced glutathione.
Molecule,pH-value at which stability in solution is greatest [1],inhibition at 300 µM [2]
N[C@@H](CS)C(=O)O [L-cysteine],< 7,
CC(=O)Oc1ccccc1C(=O)O [acetylsalicylic acid],,95 to 100%
haemoglobin,6 and 7,
